According to PubChem BioAssay (NCI):
Values joined by “and” are separate entries in the source; they are usually repeats but may differ in a detail not shown here. Identical values can stand only once.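 Five concentrations, 48 hours, 96-well plates. The concentration for 50% growth inhibition is given as GI50. TGI denotes the concentration required for complete inhibition of growth.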

Key:
Assay in all cases: NCI anticancer screen, dose series, 48 h
DMS 273 small cell lung = system: DMS 273 small cell lung
HCT-116 colon = system: HCT-116 colon
HL-60(TB) leukemia = system: HL-60(TB) leukemia
HT29 colon = system: HT29 colon
NCI-H460 lung = system: NCI-H460 lung
SK-MEL-2 melanoma = system: SK-MEL-2 melanoma
SNB-78 CNS = system: SNB-78 CNS
BT-549 breast = system: BT-549 breast
DU-145 prostate = system: DU-145 prostate
MDA-MB-231 breast = system: MDA-MB-231 breast

SMILES	TGI (DMS 273 small cell lung) [µM]	TGI (HCT-116 colon)	TGI (HL-60(TB) leukemia) [µM]	TGI (HT29 colon)	TGI (NCI-H460 lung)	TGI (SK-MEL-2 melanoma)	TGI (SNB-78 CNS) [µM]	GI50 (BT-549 breast) [µM]	TGI (BT-549 breast)	GI50 (DU-145 prostate) [µM]	TGI (DU-145 prostate)	GI50 (HCT-116 colon) [µM]	GI50 (HL-60(TB) leukemia) [µM]	GI50 (HT29 colon) [µM]	GI50 (MDA-MB-231 breast) [µM]	TGI (MDA-MB-231 breast)	GI50 (NCI-H460 lung) [µM]	GI50 (SK-MEL-2 melanoma) [µM]
C[C@]12CCc3nn(-c4ccccc4)nc3C1CC[C@@H]1C2CC[C@]2(C)C(=O)CCC12 (stereo partly drawn)	> 100	> 100 µM	> 100	> 100 µM	> 100 µM	> 100 µM	> 100	–	–	–	–	–	–	–	–	–	–	–
O=C(Cc1nc2ccccc2o1)C(=O)Nc1ccc(Cl)cc1Cl	> 100	> 100 µM	–	> 100 µM	> 100 µM	> 100 µM	> 100	–	–	–	–	–	–	–	–	–	–	–
CCC(C)C1NC(=O)C(NC(=O)C(CC(C)C)N(C)C(=O)[C@@H]2CC(O)CN2C(=O)[C@H](C)O)C(C)OC(=O)[C@H](Cc2ccc(OC)cc2)N(C)C(=O)[C@@H]2CCCN2C(=O)[C@H](CC(C)C)NC(=O)C(C)C(=O)[C@H](C(C)C)OC(=O)CC1O (stereo partly drawn)	–	1.01 µM and 1.6 µM	2.03	2.23 µM and 1.09 µM	1.16 µM and 1.4 µM	0.342 µM and 0.206 µM	–	0.0259	0.855 µM and 0.233 µM	0.0884	3.35 µM and 1.85 µM	< 0.01	0.154	0.0169	0.0926	0.991 µM and 3.95 µM	0.019	< 0.01
CC[As](CC)SCC1OC(OC(C)=O)C(OC(C)=O)C(OC(C)=O)C1OC(C)=O (stereo not drawn)	29.4	32.1 µM	19.2	54 µM	31.3 µM	26.2 µM	34.1	–	–	–	–	–	–	–	–	–	–	–
COc1ncc(-c2ccc3nccc(C#CCCCCC(=O)NO)c3c2)cc1NS(=O)(=O)c1ccc(F)cc1F	–	2.8 µM	3.06	10.5 µM	11.2 µM	1.77 µM	–	0.0535	2.77 µM	0.134	12.6 µM	0.123	0.0665	0.055	0.998	7.85 µM	0.109	0.106
Fc1ccc(N=C2C=CC(=Nc3ccc(F)cc3)c3ccccc32)cc1	> 100	> 100 µM	> 100	> 100 µM	> 100 µM	> 100 µM	> 100	–	–	–	–	–	–	–	–	–	–	–
Nc1cc(N)c2nc(NCCc3ccc(Cl)c(Cl)c3)cnc2c1	–	15.1 µM	4.88	18.8 µM	35 µM	21.4 µM	–	20.1	34.8 µM	17.2	31 µM	3.7	2.15	6.47	4.72	16.5 µM	15.4	8.23
COc1ccc([C@@H]2OC(=O)C3C2C(=O)O[C@H]3c2ccc(OC)cc2)cc1 (stereo partly drawn)	> 100	> 100 µM	> 100	> 100 µM	> 100 µM	> 100 µM	> 100	–	–	–	–	–	–	–	–	–	–	–
CN(C)CCCCNc1ccc(NCCCCN(C)C)c2c1C(=O)c1c(O)ccc(O)c1C2=O	–	2.83 µM	4.12	2.86 µM	2.94 µM	32.5 µM	–	16	29.5 µM	1.29	2.55 µM	1.51	1.73	1.19	1.47	2.78 µM	1.59	18
